Laboratory results taken from US20110098323A1, “INHIBITORS OF BACTERIAL BIOFILM FORMATION” (MICROBIOTIX, INC., priority 2009, published 2011).
Where two headings read alike, the source gives them in different places.

Assays:
S. aureus strain NRS-123 = test: MBIC/MIC secondary assay; assay type: cell-based, Staphylococcus aureus; settings: for MIC: Staphylococcus aureus, NRS123
Experimental: (§1) Assays for detecting and measuring bacterial biofilm formation are known in the art. An example of a biofilm formation assay useful in detecting and characterizing biofilm inhibitor compounds is described in Example 1, infra. Briefly, bacterial cells are inoculated into growth medium in individual wells of a 96-well assay plate in the presence or absence of a compound (known biofilm inhibitor or test compound). After incubation for a specified time, growth medium and non-biofilm bacterial cells are removed from each of the wells. The bacterial cells in any biofilms that are adhered to the surface of a well are fixed by addition of ethanol. The ethanol is removed, and the fixed biofilm bacteria cells are stained with crystal violet (CV). The intensity of CV staining is directly correlated with bacterial biofilm formation and is measured in the wells by reading the optical density at 600 nm (OD600). The difference in biofilm formation between untreated control and treated cultures provides an indication of relative biofilm inhibition activity (anti-biofilm activity). Use of different concentrations of an inhibitor in multiple and otherwise duplicate cultures permits determination of a compound's Minimal Biofilm Inhibitory Concentration (MBIC), which is defined herein as the lowest concentration of a compound that inhibits biofilm formation by at least 80% (i.e., ≧80%) compared to untreated control cultures.
(§2) A higher throughput was achieved by formatting the assay for use in flat-bottomed 96-well assay plates (Costar 3590 assay plates, Corning Life Sciences, Lowell, Mass.). The biofilm cultures grew on the bottoms of each well in a surface attached mode. In each assay plate, columns 1 and 12 contained untreated cultures, which served as negative controls (0% biofilm inhibition). Each of the assay wells in columns 2-11 contained a unique small molecule from the Microbiotix Screening Library (MSL) at a final concentration of 100 μM. Assay plates were inoculated with 200 μl/well of a culture of Staphylococcus pidermidis 18972 in 0.5×Tryptic Soy Broth (TSB; Becton Dickinson, Franklin Lakes, N.J.) in which the concentration of glucose was adjusted to 0.25% (w/v). The bacterial inocula were prepared by making a 1:100 dilution of an overnight culture grown in TSB in the media used for the screen. After inoculation, assay plates were sealed with foil tape and incubated at 37° C. for 18-20 hours (h). The optical density at 600 nm (OD600) was measured for each well using a VICTOR2V™ multiplate reader (Perkin Elmer, Waltham, Mass.) in order to quantify overall bacterial growth. The assay plates were processed to remove bacterial growth media and non-biofilm cells from the bottom of each assay well. This was accomplished by using a BioTek ELx405™ plate washer (BioTek Instruments, Inc., Winooski, Vt.). Biofilm bacteria were fixed by addition of 50 μl of 95% ethanol for 30 minutes (min). The ethanol was removed, and the fixed biofilm cultures were stained with 50 μl of 0.06% crystal violet (CV) for 60 min. Excess CV was removed by repeated washes using the BioTek ELx405™ plate washer. The amount of CV bound to each assay well was quantified by measuring OD600 using a VICTOR2V™ plate reader (Perkin Elmer).
(§3) A secondary assay provided a quantitative measure of both anti-biofilm activity and antibacterial activity in terms of the Minimal Biofilm Inhibitory Concentration (MBIC) and the Minimal Inhibitory Concentration (MIC), respectively. The MBIC and MIC are defined as the lowest compound concentrations that inhibit biofilm formation and bacterial growth, respectively, by at least 80% (i.e., ≧80%). The MBIC/MIC assay is formatted in a manner that is similar to the Microbroth dilution assays described by the Clinical and Laboratory Standards Institute (CLSI; formerly NCCLS) in protocol M7-A7. The growth conditions were optimized for biofilm growth in 96-well assay plates such that the resulting CV staining was within the linear range of detection. […]

[1] = test system: methicillin-susceptible S. aureus (MSSA); test: MBIC/MIC secondary assay; assay type: cell-based, Staphylococcus aureus; settings: for MIC: Staphylococcus aureus
Experimental: as §1, §2, §3

[2] = test system: S. epidermidis strain 35894; test: MBIC/MIC secondary assay; assay type: cell-based, Staphylococcus epidermidis; settings: for MIC: Staphylococcus epidermidis
Experimental: as §1, §2, §3

[3] = test system: S. epidermidis strain O47; test: MBIC/MIC secondary assay; assay type: cell-based, Staphylococcus epidermidis; settings: for MIC: Staphylococcus epidermidis
Experimental: as §1, §2, §3

[4] = test system: S. epidermidis strain 1457; test: MBIC/MIC secondary assay; assay type: cell-based, Staphylococcus epidermidis; settings: for MIC: Staphylococcus epidermidis
Experimental: as §1, §2, §3

S. epidermidis 18972 = test: MBIC/MIC secondary assay (crystal violet biofilm staining / OD600 growth); assay type: cell-based, Staphylococcus epidermidis; settings: for MIC: Staphylococcus epidermidis
Experimental: as §1, §2, §3

S. aureus ATCC 35556 = test: MBIC/MIC secondary assay; assay type: cell-based, Staphylococcus aureus; settings: for MIC: Staphylococcus aureus, ATCC35556
[5] = S. epidermidis strain 18972, Table 4
[6] = S. aureus strain 35556, Table 5

Compound | MBIC (S. aureus strain NRS-123; S. aureus strain NRS-123) [µM] | MIC (S. aureus strain NRS-123) [µM] | MBIC ([1]; S. aureus strain MSSA) [µM] | MIC ([1]; MSSA) [µM] | MBIC ([2]; S. epidermidis strain 35894) [µM] | MIC [2]; 35894 [µM] | MBIC ([3]; S. epidermidis strain O47) [µM] | MIC ([3]; O47) [µM] | MBIC ([4]; S. epidermidis strain 1457) | MIC [4]; 1457 [µM] | MBIC (S. epidermidis 18972; [5]) [µM] | MIC (S. epidermidis 18972; 18972) [µM] | MBIC (S. aureus ATCC 35556; [6]) [µM] | MIC (S. aureus ATCC 35556) [µM] | further results
CCOc1cc(/C=C2\SC(=S)N(c3cccc(F)c3)C2=O)ccc1O [Compound 8, 3-(3-fluorophenyl)-5-(3-ethoxy-4-hydroxybenzylidene)-2-thioxothiazolidin-4-one] | 25 | ≥ 100 | 25 | ≥ 100 | 25 | ≥ 100 | 25 | ≥ 100 | 50 µM | ≥ 100 | 50 | ≥ 100 | 6.3 | ≥ 100 | –
CCOc1cc(/C=C2\SC(=S)N(c3cccnc3)C2=O)ccc1O [Compound 36, 3-(pyridin-3-yl)-5-(3-ethoxy-4-hydroxybenzylidene)-2-thioxothiazolidin-4-one] | 12.5 | ≥ 100 | 12.5 | ≥ 100 | 12.5 | ≥ 100 | 50 | ≥ 100 | 12.5 µM | ≥ 100 | 12.5 | ≥ 100 | 12.5 | ≥ 100 | –
CCOc1cc(/C=C2\SC(=S)N(c3ccc(F)cc3)C2=O)ccc1O [Compound 4, 3-(4-fluorophenyl)-5-(3-ethoxy-4-hydroxybenzylidene)-2-thioxothiazolidin-4-one] | 25 | ≥ 100 | 12.5 | ≥ 100 | 25 | ≥ 100 | 12.5 | ≥ 100 | 50 µM | ≥ 100 | 25 | ≥ 100 | 3.1 | ≥ 100 | MBIC (S. aureus ATCC 35556; S. aureus ATCC 35556, stated in text of Examples 5 and 6): 3.125 µM
CCOc1cc(/C=C2\SC(=S)N(c3ccc(F)nc3)C2=O)ccc1O [Compound 40, 3-(6-fluoropyridin-3-yl)-5-(3-ethoxy-4-hydroxybenzylidene)-2-thioxothiazolidin-4-one] | 50 | ≥ 100 | 6.3 | ≥ 100 | 6.3 | ≥ 100 | 6.3 | ≥ 100 | 25 µM | ≥ 100 | 25 | ≥ 100 | 6.3 | ≥ 100 | –
C=CCOc1cc(/C=C2\SC(=S)N(c3ccc(F)cc3)C2=O)ccc1O [Compound 29, 3-(4-fluorophenyl)-5-(3-allyloxy-4-hydroxybenzylidene)-2-thioxothiazolidin-4-one] | 25 | – | 12.5 | – | 25 | – | 12.5 | – | 25 µM | – | 25 | – | 3.1 | – | MIC (S. aureus strain NRS-123; S. aureus strain NRS-123, read-out: MIC): ≥ 100 µM; MIC ([1]; S. aureus strain MSSA, read-out: MIC): ≥ 100 µM; MIC ([2]; S. epidermidis strain 35894, read-out: MIC): ≥ 100 µM; MIC ([3]; S. epidermidis strain O47, read-out: MIC): ≥ 100 µM; MIC ([4]; S. epidermidis strain 1457, read-out: MIC): ≥ 100 µM; MIC (S. epidermidis 18972; S. epidermidis strain 18972, Table 4, read-out: MIC): ≥ 100 µM; MIC (S. aureus ATCC 35556; S. aureus strain 35556, Table 5, read-out: MIC): ≥ 100 µM
CCOc1cc(/C=C2\SC(=S)N(c3cccc(C#N)c3)C2=O)ccc1O [Compound 34, 3-(3-cyanophenyl)-5-(3-ethoxy-4-hydroxybenzylidene)-2-thioxothiazolidin-4-one] | 25 | ≥ 100 | 12.5 | ≥ 100 | 12.5 | ≥ 100 | 1.6 | ≥ 100 | ≧100 μM | ≥ 100 | 25 | ≥ 100 | 1.6 | ≥ 100 | –
